This is an account of results in ChEMBL document CHEMBL5725270, “Substituted imidazopyridazines” (2016).

This test in a line: Time-Resolved Fluorescence Resonance Energy Transfer (TR-FRET) Assay: The human kinase Mps-1 phosphorylates a biotinylated substrate peptide. Detection of the phosphorylated product is achieved by time-resolved fluorescence resonance energy transfer (TR-FRET) from Europium-labelled anti-phospho-Serine/Threonine antibody as donor to streptavidin labelled with cross-linked allophycocyanin (SA-XLent) as acceptor. Compounds are tested for their inhibition of the kinase activity.N-terminally GST-tagged human full length recombinant Mps-1 kinase (purchased from Invitrogen, Karslruhe, Germany, cat. no PV4071) was used. […] The concentration of Mps-1 in the assay was adjusted to the activity of the enzyme lot and was chosen appropriate to have the assay in the linear range, typical enzyme concentrations were in the range of about 1 nM (final conc. in the 5 ul assay volume).

The structures appear in SMILES notation.

The IC50 is the midpoint of a concentration-inhibition curve. As for `Cc1cc(-c2cnc3c(NCCC(F)(F)F)cc(C(=O)c4cccc(F)c4F)nn23)ccc1C(=O)NC1CC1`, the IC50 was found to be 0.6 nM. Turning to `C=C(c1cc(NCCC(F)(F)F)c2ncc(-c3ccc(C(=O)NC4CC4)c(C)c3)n2n1)c1cc(F)ccc1O`, the IC50 came to 0.4 nM. For `Cc1cc(-c2cnc3c(NCCC(F)(F)F)cc(C(C)(O)c4cccc(F)c4O)nn23)ccc1C(=O)NC1CC1` (configuration not stated), the IC50 was determined as 0.3 nM. On to `Cc1cc(-c2cnc3c(NCCC(F)(F)F)cc(C(F)(F)c4cccc(F)c4F)nn23)ccc1C(=O)NC1CC1`, for which the IC50 amounted to 1.5 nM. Regarding `Cc1cc(-c2cnc3c(NCCC(F)(F)F)cc(C(=O)c4cc(F)ccc4F)nn23)ccc1C(=O)NC1CC1`, the IC50 worked out at 0.6 nM.

As to `COc1cccc(C(=O)c2cc(NCCC(F)(F)F)c3ncc(-c4ccc(C(=O)NC5CC5)c(C)c4)n3n2)c1`, the IC50 came to 0.5 nM. As for `C=C(c1cc(NCCC(F)(F)F)c2ncc(-c3ccc(C(=O)NC4CC4)c(C)c3)n2n1)c1cccc(F)c1F`, the IC50 was 0.4 nM. For `Cc1cc(-c2cnc3c(NCCC(F)(F)F)cc(C(O)c4cc(F)ccc4F)nn23)ccc1C(=O)NC1CC1` (configuration not stated), the IC50 was 0.3 nM.

`C=C(c1cc(NCCC(F)(F)F)c2ncc(-c3ccc(C(=O)NC4CC4)c(C)c3)n2n1)c1cc(F)ccc1F`: the IC50 worked out at 0.6 nM. `C=C(c1cccc(F)c1)c1cc(NCCC(F)(F)F)c2ncc(-c3ccc(C(=O)NC4CC4)c(C)c3)n2n1`: the IC50 stood at 0.3 nM. Consider `C=C(c1ccc(OC)cc1)c1cc(NCCC(F)(F)F)c2ncc(-c3ccc(C(=O)NC4CC4)c(C)c3)n2n1`, for which the IC50 came out at 0.5 nM.

Take `COc1ccc(C(=O)c2cc(NCCC(F)(F)F)c3ncc(-c4ccc(C(=O)NC5CC5)c(C)c4)n3n2)cc1`: the IC50 stood at 1.2 nM. Regarding `C=C(c1cccc(OC)c1)c1cc(NCCC(F)(F)F)c2ncc(-c3ccc(C(=O)NC4CC4)c(C)c3)n2n1`, the IC50 was 0.8 nM. `Cc1cc(-c2cnc3c(NCCC(F)(F)F)cc(C(F)(F)c4cc(F)ccc4F)nn23)ccc1C(=O)NC1CC1`: the IC50 was determined as 0.5 nM.

With `Cc1cc(-c2cnc3c(NCCC(F)(F)F)cc(C4(c5cc(F)ccc5F)CC4)nn23)ccc1C(=O)NC1CC1`, the IC50 is 0.8 nM.

For `Cc1cc(-c2cnc3c(NCCC(F)(F)F)cc(C4(c5cccc(F)c5)CC4)nn23)ccc1C(=O)NC1CC1`, the IC50 was found to be 0.9 nM. Consider `Cc1cc(-c2cnc3c(NCCC(F)(F)F)cc(C(F)c4cccc(F)c4)nn23)ccc1C(=O)NC1CC1` (configuration not stated), for which the IC50 was found to be 0.7 nM.
